The source of these data is patent publication US20110053933A1, “HYDROXYQUINOXALINECARBOXAMIDE DERIVATIVE” (DAIICHI SANKYO COMPANY, LIMITED, priority 2008, published 2011).

pIC50: −log10 of the molar value.

The assay concerns γ-glutamyl carboxylation reaction (human Gas6 in Gas6-HEK293 cells). Put plainly: Inhibitory action on γ-glutamyl carboxylation reaction (secreted γ-glutamyl carboxylated Gas6 by ELISA). Conditions: vitamin K2 100 nM, exposure 18 to 20 hours, ELISA absorbance at 620 nm, read-out: IC50 (50% inhibitory concentration for the γ-glutamyl carboxylation reaction). The class given is cell-based. Here is the method: Measurement of Inhibitory Action on γ-Glutamyl Carboxylation Reaction
Cells were used that expressed Gas6 excreted outside the cells when subjected to γ-glutamyl carboxylation, and inhibitory action on γ-glutamyl carboxylation reaction was assessed by measuring the secreted amount of extracellular Gas6 by ELISA method.
(A) Preparation for Assay Plate Containing Solid-Phase Anti-Human Gas6 Antibody
Goat anti-human Gas6 antibody (R&D Systems, Inc.) was diluted to 1 μg/ml with Dulbecco's phosphate-buffered saline, and 40 μl aliquots thereof were dispensed into each well of a 384-well microplate. After immobilizing the antibody to the solid phase by allowing it to stand at 4° C. overnight or at room temperature for 2 hours or more, each well was washed three times with wash buffer (10 mM Tris-HCl pH 7.4, 150 mM sodium chloride, 0.05% Tween20). After removing the supernatant, 80 μl aliquots of a 1% aqueous solution of Block Ace (Dainippon Sumitomo Pharma) were dispensed into each well and allowed to react at room temperature for 1 hour or more.
(B) Exposure of Test Compounds to Cells Stably Expressing Human Gas6
Cells that stably express human Gas6 (Gas6-HEK293), which were prepared by inserting human Gas6 gene (inserted between SalI and NotI within multiple cloning sites of pCIneo expression vector) into HEK293 cells, were grown and sub-cultured using Dulbecco's modified Eagle's medium (DMEM) containing 10% fetal calf serum (FCS). On the day before ELISA measurement, the Gas6-HEK293 cells were detached with trypsin-EDTA, dispersed in DMEM containing 10% FCS, and disseminated into each well of a 384-well, collagen type I-coated plate (Becton-Dickinson) in 30 μl aliquots containing 1.0×10^4 cells each, followed by culturing for 3 to 4 hours at 5% CO2 and 37° C. 30 μl aliquots of DMEM containing test compound solutions, prepared at various concentrations by dissolving in DMSO, and vitamin K2 at 0.1% and 100 nM, respectively (indicating final concentrations in both cases) were added to each well followed by additionally culturing for 18 to 20 hours.
(C) Quantification of γ-Glutamyl Carboxylated Gas6 by ELISA and Calculation of 50% Inhibitory Concentrations of γ-Glutamyl Carboxylation Reaction
After removing the 1% Block Ace aqueous solution from the preliminarily prepared assay plates containing solid phase anti-human Gas6 antibody, the culture supernatant of Gas6-HEK293 cells exposed to the test compounds was collected and 40 μl aliquots were dispensed into each well followed by allowing to react at room temperature for 2 hours (Step 1). The culture supernatant was removed and each well was washed three times with wash buffer. Thereafter, the same washing procedure was carried out between Steps 2 and 3 and Steps 3 and 4. Subsequently, 40 μl aliquots of mouse anti-human […] antibody (American Diagnostica inc.), adjusted to 0.5 μg/ml with immunoreaction buffer (100 mM Tris-HCl pH 7.4, 0.05% Tween20, 0.1% Block Ace), were dispensed into each well and allowed to react at room temperature for 1 hour (Step 2). Next, 40 μl aliquots of alkaline phosphatase-conjugated anti-mouse IgG antibody adjusted to 1.0 μg/ml with immunoreaction buffer were dispensed into each well and allowed to react at room temperature for 1 hour (Step 3). 40 μl aliquots of BluePhos Microwell (KPL) were dispensed into each well, and after incubating at room temperature for 10 minutes (Step 4), 20 μl aliquots of 5% EDTA were added to each well to stop the color development reaction, followed by measurement of absorbance at 620 nm (Step 5). […]
Take `CC(C)[C@H](NC(=O)c1nc2ccccc2nc1O)C(=O)N1CCC(Sc2ccc(F)cc2)CC1` [Example 45, N-[(1S)-1-({4-[(4-Fluorophenyl)thio]piperidin-1-yl}carbonyl)-2-methylpropyl]-3-hydroxyquinoxaline-2-carboxamide]: the pIC50 is 8.89.
With `CC(C)[C@H](NC(=O)c1nc2ccccc2nc1O)C(=O)N1CCC(Oc2ncc(F)cc2F)CC1` [Example 49, N-[(1S)-1-({4-[(3,5-Difluoropyridin-2-yl)oxy]piperidin-1-yl]carbonyl)-2-methylpropyl}-3-hydroxyquinoxaline-2-carboxamide] the figure was 8.37; with `CC(C)[C@H](NC(=O)c1nc2ccccc2nc1O)C(=O)N1CCC(C(=O)c2ccc(F)cc2)CC1` [Example 61, N-[(1S)-1-{[4-(4-Fluorobenzoyl)piperidin-1-yl]carbonyl}-2-methylpropyl]-3-hydroxyquinoxaline-2-carboxamide], 8.29.
For `CC(C)[C@H](NC(=O)c1nc2ccccc2nc1O)C(=O)N1CCC(Oc2ccc(C(F)(F)F)cc2)CC1` [Example 62, 3-Hydroxy-N-[(1S)-2-methyl-1-({4-[4-(trifluoromethyl)phenoxy]piperidin-1-yl}carbonyl)propyl]quinoxaline-2-carboxamide], the pIC50 was 8.44.
For the molecule `CC(C)[C@H](NC(=O)c1nc2ccccc2nc1O)C(=O)N1CCC(Oc2ncc(Br)cn2)CC1` [Example 65, N-[(1S)-1-({4-[(5-Bromopyrimidin-2-yl)oxy]piperidin-1-yl}carbonyl)-2-methylpropyl]-3-hydroxyquinoxaline-2-carboxamide], the pIC50 was 7.70.
For the molecule `CC(C)[C@H](NC(=O)c1nc2ccccc2nc1O)C(=O)N1CCC(C(=O)c2ccc(F)cc2O)CC1` [Example 67, N-[(1S)-1-{[4-(4-Fluoro-2-hydroxybenzoyl)piperidin-1-yl]carbonyl}-2-methylpropyl]-3-hydroxyquinoxaline-2-carboxamide], the pIC50 was 9.12.
Regarding `CC(C)(O)[C@H](NC(=O)c1nc2ccccc2nc1O)C(=O)N1CCC(Oc2ccc(F)cc2)CC1` [Example 69, N-[(1S)-1-{[4-(4-Fluorophenoxy)piperidin-1-yl]carbonyl}-2-hydroxy-2-methylpropyl]-3-hydroxyquinoxaline-2-carboxamide], the pIC50 is 8.47.
For `CC(C)[C@H](NC(=O)c1nc2ccc(F)cc2nc1O)C(=O)N1CCC(Oc2ccc(F)cc2)CC1` [Example 74, N-[(1S)-1-{[4-(4-Fluorophenoxy)piperidin-1-yl]carbonyl}-2-methylpropyl]-6-fluoro-3-hydroxyquinoxaline-2-carboxamide] the value was 8.26.
For `CC(C)[C@H](NC(=O)c1nc2ccccc2nc1O)C(=O)N1CCC(Oc2ncc(-c3ccccc3)cn2)CC1` [Example 80, 3-Hydroxy-N-[(1S)-2-methyl-1-({4-[(5-phenylpyrimidin-2-yl)oxy]piperidin-1-yl}carbonyl)propyl]quinoxaline-2-carboxamide] the value was 8.15; for `CC(C)[C@H](NC(=O)c1nc2ccccc2nc1O)C(=O)N1CCC(Oc2cnc(-c3ccccc3)nc2)CC1` [Example 81, 3-Hydroxy-N-[(1S)-2-methyl-1-({4-[(2-phenylpyrimidin-5-yl)oxy]piperidin-1-yl}carbonyl)propyl]quinoxaline-2-carboxamide], 8.34; for `CC(C)[C@H](NC(=O)c1nc2ccccc2nc1O)C(=O)N1CCC(Oc2ncc(Br)cn2)C(C)(C)C1` (stereo partly drawn) [Example 82, N-[(1S)-1-({4-[(5-Bromopyrimidin-2-yl)oxy]-3,3-dimethylpiperidin-1-yl}carbonyl)-2-methylpropyl]-3-hydroxyquinoxaline-2-carboxamide], 8.34.
For `CC(C)[C@H](NC(=O)c1nc2ccccc2nc1O)C(=O)N1CCC(Oc2ccc(C(F)(F)F)nc2)CC1` [Example 84, 3-Hydroxy-N-{(1S)-2-methyl-1-[(4-{[6-(trifluoromethyl)pyridin-3-yl]oxy}piperidin-1-yl)carbonyl]propyl}quinoxaline-2-carboxamide] the value was 8.26.
For the molecule `COc1ccc(OC2CCN(C(=O)[C@@H](NC(=O)c3nc4ccccc4nc3O)C(C)C)CC2)cn1` [Example 86, 3-Hydroxy-N-[(1S)-1-({4-[(6-methoxypyridin-3-yl)oxy]piperidin-1-yl}carbonyl)-2-methylpropyl]quinoxaline-2-carboxamide], the pIC50 is 9.15.
As for `Cc1nc2ccc(OC3CCN(C(=O)[C@@H](NC(=O)c4nc5ccccc5nc4O)C(C)C)CC3)cc2s1` [Example 91, 3-Hydroxy-N-[(1S)-2-methyl-1-({4-[(2-methyl-1,3-benzothiazol-6-yl)oxy]piperidin-1-yl}carbonyl)propyl]quinoxaline-2-carboxamide], the pIC50 was 8.42.
With `CC(C)[C@H](NC(=O)c1nc2ccccc2nc1O)C(=O)N1CCC(Oc2ncc(C(F)(F)F)cn2)CC1` [Example 94, 3-Hydroxy-N-{(1S)-2-methyl-1-[(4-{[5-(trifluoromethyl)pyrimidin-2-yl]oxy}piperidin-1-yl)carbonyl]propyl}quinoxaline-2-carboxamide] the figure was 8.57.
With `CC(C)[C@H](NC(=O)c1nc2ccccc2nc1O)C(=O)N1CCC(Oc2ncc(N3CCCCC3)cn2)CC1` [Example 96, 3-Hydroxy-N-[(1S)-2-methyl-1-({4-[(5-piperidin-1-ylpyrimidin-2-yl)oxy]piperidin-1-yl}carbonyl)propyl]quinoxaline-2-carboxamide] the figure was 8.02.
With `CC(C)[C@H](NC(=O)c1nc2ccccc2nc1O)C(=O)N1CCC(Oc2cnc(N3CCCCC3)nc2)CC1` [Example 97, 3-Hydroxy-N-[(1S)-2-methyl-1-({4-[(2-piperidin-1-ylpyrimidin-5-yl)oxy]piperidin-1-yl}carbonyl)propyl]quinoxaline-2-carboxamide] the figure was 8.35; with `CC(C)[C@H](NC(=O)c1nc2ccccc2nc1O)C(=O)N1CCC(C(=O)c2ccc(F)cc2F)CC1` [Example 98, N-[(1S)-1-{[4-(2,4-Difluorobenzoyl)piperidin-1-yl]carbonyl}-2-methylpropyl]-3-hydroxyquinoxaline-2-carboxamide], 8.46; with `CC(C)[C@H](NC(=O)c1nc2ccccc2nc1O)C(=O)N1CCC(C(O)c2ccc(F)cc2F)CC1` (stereo partly drawn) [Example 99, N-[(1S)-1-({4-[(2,4-Difluorophenyl)(hydroxy)methyl]piperidin-1-yl}carbonyl)-2-methylpropyl]-3-hydroxyquinoxaline-2-carboxamide], 8.31.
As for `CC(C)[C@H](NC(=O)c1nc2ccccc2nc1O)C(=O)N1CCC(Oc2ccc(C(F)(F)F)nn2)CC1` [Example 100, 3-Hydroxy-N-{(1S)-2-methyl-1-[(4-{[6-(trifluoromethyl)pyridazin-3-yl]oxy}piperidin-1-yl)carbonyl]propyl}quinoxaline-2-carboxamide], the pIC50 is 7.98.
